# US20250114460A1, “NOVEL PLK1 DEGRADATION INDUCING COMPOUND” (UPPTHERA, INC., priority 2021, published 2025)
# Experiments:
# PLK1 = molecular target: T1, PLK1 (Homo sapiens, UniProt P53350); experiment: Luciferase assay for PLK1 in HeLa LgBit (Plk1-HiBit KI) cell line; type: cell-based; details: 300 nM compound, luminescence after 9 hours
# T1 construct: endogenous in cells; host or cells: HeLa LgBit (Plk1-HiBit KI): HeLa stably expressing LgBit, with a CRISPR/Cas9 knock-in of HiBit at the endogenous PLK1 locus
# T1 sequence (P53350 whole entry): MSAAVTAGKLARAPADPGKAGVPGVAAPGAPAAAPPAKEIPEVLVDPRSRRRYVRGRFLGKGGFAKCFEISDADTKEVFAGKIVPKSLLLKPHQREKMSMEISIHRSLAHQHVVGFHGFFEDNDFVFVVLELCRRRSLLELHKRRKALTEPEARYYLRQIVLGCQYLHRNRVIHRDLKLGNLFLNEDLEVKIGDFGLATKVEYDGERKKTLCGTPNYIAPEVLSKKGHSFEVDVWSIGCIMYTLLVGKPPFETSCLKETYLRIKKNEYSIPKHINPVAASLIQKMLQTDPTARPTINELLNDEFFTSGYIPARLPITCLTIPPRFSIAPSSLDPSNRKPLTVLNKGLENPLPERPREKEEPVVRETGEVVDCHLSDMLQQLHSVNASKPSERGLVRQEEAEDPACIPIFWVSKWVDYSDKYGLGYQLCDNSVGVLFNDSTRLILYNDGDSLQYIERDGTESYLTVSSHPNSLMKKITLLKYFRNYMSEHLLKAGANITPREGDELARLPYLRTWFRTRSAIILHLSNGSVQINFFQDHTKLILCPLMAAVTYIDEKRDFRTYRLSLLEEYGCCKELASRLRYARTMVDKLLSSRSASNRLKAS
# Summary of the method: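 Luminescence, followed in real time after adding compound at 300 nM and Endurazine substrate, is reported relative to DMSO-treated wells. Cells are a HeLa LgBit line with a Plk1-HiBit knock-in, synchronized by 2 mM thymidine for 24 h, released, and cultured 18 h before treatment.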
# NCI-H526 cell line = experiment: Cell viability assay for H526 cell (EZ-Cytox); type: cell-based; details: Homo sapiens, NCI-H526, 120 h; H526 cells, 5 days, 3000 nM to 0.46 nM
# Protocol: (1) Culture of NCI-H526 Cell Line
# (2) Treatment of Compounds of the Present Invention and Method of Cell Viability Assay
# After treating the compound to each well to make the total volume of 200 μL, it was cultured in a CO2 incubator (Thermo Fisher Science, Cat. No. 4111) for 5 days.
# The absorbance of the completely cultured sample was measured by setting the wavelength of a plate reader (BMG Labtech, CLARIOstar Plus) to […], and was measured after shaking for 3 minutes in a plate reader before measurement.
# In Table 3, Activity represents IC50 value of each Exemplary Compound treatment group to H526 cell line (A: <30 nM, B: <50 nM, C: <100 nM, D: <200 nM, E: <400 nM).
Compound,Activity: ratio of the luminescense value of each Exemplary Compound treatment group to DMSO treatment group (PLK1),IC50 (NCI-H526 cell line)
"COc1cc(N2CCC(CN3CCN(c4cccc5c4C(=O)N(C4CCC(=O)NC4=O)C5=O)CC3)CC2)c(F)cc1Nc1ncc2c(n1)N(C1CCCC1)CC(F)(F)C(=O)N2C (centres unmarked) [Compound 103, 4-(4-((1-(4-((9-cyclopentyl-7,7-difluoro-5-methyl-6-oxo-6,7,8,9-tetrahydro-5H-pyrimido[4,5-b][1,4]diazepin-2-yl)amino)-2-fluoro-5-methoxyphenyl)piperidin-4-yl)methyl)piperazin-1-yl)-2-(2,6-dioxopiperidin-3-yl)isoindoline-1,3-dione]",++ (++<0.6),< 200 nM
"COc1cc(C(=O)N2CCC(CCCN3CCN(c4ccc5c(c4)C(=O)N(C4CCC(=O)NC4=O)C5=O)CC3)CC2)ccc1Nc1ncc2c(n1)N(C1CCCC1)CC(F)(F)C(=O)N2C (centres unmarked) [Compound 99, 5-(4-(3-(1-(4-((9-cyclopentyl-7,7-difluoro-5-methyl-6-oxo-6,7,8,9-tetrahydro-5H-pyrimido[4,5-b][1,4]diazepin-2-yl)amino)-3-methoxybenzoyl)piperidin-4-yl)propyl)piperazin-1-yl)-2-(2,6-dioxopiperidin-3-yl)isoindoline-1,3-dione]",++ (++<0.6),< 400 nM
"COc1cc(C(=O)NC2CCN(C(=O)CCCSc3cccc4c3C(=O)N(C3CCC(=O)NC3=O)C4=O)CC2)c(F)cc1Nc1ncc2c(n1)N(C1CCCC1)CC(F)(F)C(=O)N2C (centres unmarked) [Compound 42, 4-((9-cyclopentyl-7,7-difluoro-5-methyl-6-oxo-6,7,8,9-tetrahydro-5H-pyrimido[4,5-b][1,4]diazepin-2-yl)amino)-N-(1-(4-((2-(2,6-dioxopiperidin-3-yl)-1,3-dioxoisoindolin-4-yl)thio)butanoyl)piperidin-4-yl)-2-fluoro-5-methoxybenzamide]",++ (++<0.6),< 100 nM
"COc1cc(C(=O)NC2CCCN(C(=O)CN3CCN(c4cccc5c4C(=O)N(C4CCC(=O)NC4=O)C5=O)CC3)C2)ccc1Nc1ncc2c(n1)N(C1CCCC1)CC(F)(F)C(=O)N2C (centres unmarked) [Compound 122, 4-((9-cyclopentyl-7,7-difluoro-5-methyl-6-oxo-6,7,8,9-tetrahydro-5H-pyrimido[4,5-b][1,4]diazepin-2-yl)amino)-N-(1-(2-(4-(2-(2,6-dioxopiperidin-3-yl)-1,3-dioxoisoindolin-4-yl)piperazin-1-yl)acetyl)piperidin-3-yl)-3-methoxybenzamide]",+++ (+++: <0.3),< 30 nM
"COc1cc(C(=O)NN2CCN(C(=O)CCCNc3cccc4c3C(=O)N(C3CCC(=O)NC3=O)C4=O)CC2)c(F)cc1Nc1ncc2c(n1)N(C1CCCC1)CC(F)(F)C(=O)N2C (centres unmarked) [Compound 29, 4-((9-cyclopentyl-7,7-difluoro-5-methyl-6-oxo-6,7,8,9-tetrahydro-5H-pyrimido[4,5-b][1,4]diazepin-2-yl)amino)-N-(4-(4-((2-(2,6-dioxopiperidin-3-yl)-1,3-dioxoisoindolin-4-yl)amino)butanoyl)piperazin-1-yl)-2-fluoro-5-methoxybenzamide]",++ (++<0.6),< 30 nM
"COc1cc(C(=O)N2CCC(N3CCN(CCOCCNc4cccc5c4C(=O)N(C4CCC(=O)NC4=O)C5=O)CC3)CC2)c(F)cc1Nc1ncc2c(n1)N(C1CCCC1)CC(F)(F)C(=O)N2C (centres unmarked) [Compound 189, 4-((2-(2-(4-(1-(4-((9-cyclopentyl-7,7-difluoro-5-methyl-6-oxo-6,7,8,9-tetrahydro-5H-pyrimido[4,5-b][1,4]diazepin-2-yl)amino)-2-fluoro-5-methoxybenzoyl)piperidin-4-yl)piperazin-1-yl)ethoxy)ethyl)amino)-2-(2,6-dioxopiperidin-3-yl)isoindoline-1,3-dione]",++ (++<0.6),–
"COc1cc(C(=O)N[C@H]2CC[C@H](N3CCN(CCNc4cccc5c4C(=O)N(C4CCC(=O)NC4=O)C5=O)CC3)CC2)c(F)cc1Nc1ncc2c(n1)N(C1CCCC1)CC(F)(F)C(=O)N2C (some centres unmarked) [Compound 196, 4-((9-cyclopentyl-7,7-difluoro-5-methyl-6-oxo-6,7,8,9-tetrahydro-5H-pyrimido[4,5-b][1,4]diazepin-2-yl)amino)-N-((1r,4r)-4-(4-(2-((2-(2,6-dioxopiperidin-3-yl)-1,3-dioxoisoindolin-4-yl)amino)ethyl)piperazin-1-yl)cyclohexyl)-2-fluoro-5-methoxybenzamide]",++ (++<0.6),–
"COc1cc(C(=O)NCCOCCOCCOCCOCCNc2cccc3c2C(=O)N(C2CCC(=O)NC2=O)C3=O)c(N2CCN(C)CC2)cc1Nc1ncc2c(n1)N(C1CCCC1)CC(F)(F)C(=O)N2C (centres unmarked) [Compound 224, 4-((9-cyclopentyl-7,7-difluoro-5-methyl-6-oxo-6,7,8,9-tetrahydro-5H-pyrimido[4,5-b][1,4]diazepin-2-yl)amino)-N-(14-((2-(2,6-dioxopiperidin-3-yl)-1,3-dioxoisoindolin-4-yl)amino)-3,6,9,12-tetraoxatetradecyl)-5-methoxy-2-(4-methylpiperazin-1-yl)benzamide]",++ (++<0.6),–
"COc1cc(C(=O)N[C@H]2CCN(C(=O)CCN3CCN(c4ccc5c(c4)CN(C4CCC(=O)NC4=O)C5=O)CC3)C2)c(F)cc1Nc1ncc2c(n1)N(C1CCCC1)CC(F)(F)C(=O)N2C (stereo partly drawn) [Compound 84, 4-((9-cyclopentyl-7,7-difluoro-5-methyl-6-oxo-6,7,8,9-tetrahydro-5H-pyrimido[4,5-b][1,4]diazepin-2-yl)amino)-N-((3S)-1-(3-(4-(2-(2,6-dioxopiperidin-3-yl)-1-oxoisoindolin-5-yl)piperazin-1-yl)propanoyl)pyrrolidin-3-yl)-2-fluoro-5-methoxybenzamide]",++ (++<0.6),–

# More lines, main results first:
Activity: ratio of the luminescense value of each Exemplary Compound treatment group to DMSO treatment group (PLK1),Compound,IC50 (NCI-H526 cell line)
+++ (+++: <0.3),"COc1cc(C(=O)NCC2CCN(CC3CCN(c4cccc5c4C(=O)N(C4CCC(=O)NC4=O)C5=O)CC3)CC2)ccc1Nc1ncc2c(n1)N(C1CCCC1)CC(F)(F)C(=O)N2C (centres unmarked) [Compound 53, 4-((9-cyclopentyl-7,7-difluoro-5-methyl-6-oxo-6,7,8,9-tetrahydro-5H-pyrimido[4,5-b][1,4]diazepin-2-yl)amino)-N-((1-((1-(2-(2,6-dioxopiperidin-3-yl)-1,3-dioxoisoindolin-4-yl)piperidin-4-yl)methyl)piperidin-4-yl)methyl)-3-methoxybenzamide]",< 50 nM
++ (++<0.6),"COc1cc(C(=O)NC2CCN(C(=O)CN3CCN(c4ccc5c(c4)C(=O)N(C4CCC(=O)NC4=O)C5=O)CC3)CC2)ccc1Nc1ncc2c(n1)N(C1CCCC1)CC(F)(F)C(=O)N2C (centres unmarked) [Compound 127, 4-((9-cyclopentyl-7,7-difluoro-5-methyl-6-oxo-6,7,8,9-tetrahydro-5H-pyrimido[4,5-b][1,4]diazepin-2-yl)amino)-N-(1-(2-(4-(2-(2,6-dioxopiperidin-3-yl)-1,3-dioxoisoindolin-5-yl)piperazin-1-yl)acetyl)piperidin-4-yl)-3-methoxybenzamide]",< 100 nM
++ (++<0.6),"COc1cc(C(=O)NN2CCC(N3CC4(CCN(c5cccc6c5CN(C5CCC(=O)NC5=O)C6=O)CC4)C3)CC2)ccc1Nc1ncc2c(n1)N(C(C)C)CC(F)(F)C(=O)N2C (centres unmarked) [Compound 218, 4-((7,7-difluoro-9-isopropyl-5-methyl-6-oxo-6,7,8,9-tetrahydro-5H-pyrimido[4,5-b][1,4]diazepin-2-yl)amino)-N-(4-(7-(2-(2,6-dioxopiperidin-3-yl)-1-oxoisoindolin-4-yl)-2,7-diazaspiro[3.5]nonan-2-yl)piperidin-1-yl)-3-methoxybenzamide]",< 50 nM
++ (++<0.6),"COc1cc(C(=O)NCCCOCCCOCCOc2cccc3c2CN(C2CCC(=O)NC2=O)C3=O)ccc1Nc1ncc2c(n1)N(C1CCCC1)CC(F)(F)C(=O)N2C (centres unmarked) [Compound 20, 4-((9-cyclopentyl-7,7-difluoro-5-methyl-6-oxo-6,7,8,9-tetrahydro-5H-pyrimido[4,5-b][1,4]diazepin-2-yl)amino)-N-(3-(3-(2-((2-(2,6-dioxopiperidin-3-yl)-1-oxoisoindolin-4-yl)oxy)ethoxy)propoxy)propyl)-3-methoxybenzamide]",< 200 nM
++ (++<0.6),"COc1cc(C(=O)NN2CCN(C3CCN(c4ccc5c(c4)C(=O)N(C4CCC(=O)NC4=O)C5=O)CC3(F)F)CC2)ccc1Nc1ncc2c(n1)N(C(C)C)CC(F)(F)C(=O)N2C (centres unmarked) [Compound 168, 4-((7,7-difluoro-9-isopropyl-5-methyl-6-oxo-6,7,8,9-tetrahydro-5H-pyrimido[4,5-b][1,4]diazepin-2-yl)amino)-N-(4-(1-(2-(2,6-dioxopiperidin-3-yl)-1,3-dioxoisoindolin-5-yl)-3,3-difluoropiperidin-4-yl)piperazin-1-yl)-3-methoxybenzamide]",–
